Patent publication US20120196791A1, “COMBINATION THERAPIES USING ANTIBACTERIAL AMINOGLYCOSIDE COMPOUNDS” (Achaogen, Inc., priority 2009, published 2012)
Read-outs that look alike come from different tables or passages of the source.

Tests used:
Format in all cases: cell-based
S. aureus strains = experiment: MIC by macrodilution
Description: (§1) “MIC”, which stands for minimum inhibitory concentration, refers to that concentration, in μg/mL, of a compound of this invention that inhibits the growth and/or proliferation of a strain of bacteria by at least 80% compared to an untreated control as determined by visual inspection of a liquid culture.
Synergy time-kill was used to test the activity of Example 1, alone and in combination with daptomycin (DAP), ceftobiprole (BPR), and linezolid (LZD), against 25 S. aureus strains. 25 clinical isolates included 2 hVISA, 2 VISA, and 5 VRSA, 10 hospital acquired and 6 community acquired MRSA strains. MICs were determined by macrodilution and time-kill was used to verify the activity of all four agents alone. MICs were predetermined by macrodilution in cation-adjusted Mueller-Hinton broth (BBL Microbiology Systems, Cockeysville, Md.) according to standard methodology. Daptomycin susceptibility testing was performed in Mueller-Hinton broth adjusted to 50 μg/mL of calcium according to standard methodology. All strains were tested by time-kill methodology with each compound alone according to standard methods. Cultures were initiated by adding 35-μL aliquots of suspensions into 5 mL of broth. Viability counts (100-μL aliquots) in synergy tests were performed at 0, 3, 6, 12, and 24 h in a shaking water bath at 35° C. with final inocula of between 5×10^5 and 5×10^6 CFU/mL. Only plates with 30 to 300 colonies were counted.

P. aeruginosa strains [1] = experiment: Synergy time-kill; details: with each drug tested, majority of isolates, 24 h
P. aeruginosa strains [2] = experiment: MIC by macrodilution
Description: as §1
Synergy time-kill was used to test the activity of Example 1, alone and in combination with cefepime, doripenem, imipenem and piperacillin/tazobactam, against 10 P. aeruginosa strains. The 10 clinical isolates included 5 cefepime resistant, 5 doripenem resistant, 8 imipenem resistant, and 9 piperacillin/tazobactam resistant strains. MICs were determined by macrodilution and time-kill was used to verify the activity of all five agents alone. MICs were predetermined by macrodilution in cation-adjusted Mueller-Hinton broth (BBL Microbiology Systems, Cockeysville, Md.) according to standard methodology. All strains were tested by time-kill methodology with each compound alone according to standard methods. Strains were examined by PCR for genes encoding aminoglycoside modifying enzymes (AMEs). Cultures were initiated by adding 35-μL aliquots of suspensions into 5 mL of broth. Viability counts (100-μL aliquots) in synergy tests were performed at 0, 3, 6, 12, and 24 h in a shaking water bath at 35° C. with final inocula of between 5×10^5 and 5×10^6 CFU/mL. Only plates with 30 to 300 colonies were counted.

[3] = Staphylococcus aureus, ATCC 33591 / MRSA, Strain 13, ATCC33591 HA-MRSA, read-out: MIC
[4] = Staphylococcus aureus, MRSA, Strain 6, CA-MRSA, PVL+, read-out: MIC
[5] = Staphylococcus aureus, MRSA, Strain 7, CA-MRSA, PVL+, read-out: MIC
[6] = Staphylococcus aureus, MRSA, Strain 8, CA-MRSA, PVL+, read-out: MIC
[7] = Staphylococcus aureus, MRSA, Strain 14, HA-MRSA, read-out: MIC
[8] = Staphylococcus aureus, MRSA, Strain 15, HA-MRSA, read-out: MIC
[9] = Staphylococcus aureus, MRSA, Strain 16, HA-MRSA, read-out: MIC
[10] = Staphylococcus aureus, MRSA, Strain 17, HA-MRSA, read-out: MIC
[11] = Staphylococcus aureus, MRSA, Strain 18, HA-MRSA, read-out: MIC
[12] = Staphylococcus aureus, MRSA, Strain 19, HA-MRSA, read-out: MIC
[13] = Staphylococcus aureus, MRSA, Strain 20, HA-MRSA, read-out: MIC
[14] = Staphylococcus aureus, MRSA, Strain 21, HA-MRSA, read-out: MIC
[15] = Staphylococcus aureus, MRSA, Strain 22, HA-MRSA, read-out: MIC
[16] = Staphylococcus aureus, MRSA, Strain 23, CA-MRSA PVL+, read-out: MIC
[17] = Staphylococcus aureus, MRSA, Strain 24, CA-MRSA PVL+, read-out: MIC
[18] = Staphylococcus aureus, MRSA, Strain 25, CA-MRSA PVL neg, read-out: MIC
[19] = Staphylococcus aureus, Strain 9, hVISA, read-out: MIC
[20] = Staphylococcus aureus, Strain 10, hVISA, read-out: MIC
[21] = Staphylococcus aureus, VISA, Strain 11, VISA, read-out: MIC
[22] = Staphylococcus aureus, VISA, Strain 12, VISA, read-out: MIC
[23] = Staphylococcus aureus, VRSA, Strain 1, VRSA, read-out: MIC
[24] = Staphylococcus aureus, VRSA, Strain 2, VRSA, read-out: MIC
[25] = Staphylococcus aureus, VRSA, Strain 3, VRSA, read-out: MIC
[26] = Staphylococcus aureus, VRSA, Strain 4, VRSA, read-out: MIC
[27] = Staphylococcus aureus, VRSA, Strain 5, VRSA, read-out: MIC
[28] = Staphylococcus aureus, range over 25 S. aureus strains, read-out: MICs of each agent alone

## CCCCCCCCCC(=O)N[C@@H](Cc1c[nH]c2ccccc12)C(=O)N[C@H](CC(N)=O)C(=O)N[C@@H](CC(=O)O)C(=O)N[C@@H]1C(=O)NCC(=O)N[C@@H](CCCN)C(=O)N[C@@H](CC(=O)O)C(=O)N[C@H](C)C(=O)N[C@@H](CC(=O)O)C(=O)NCC(=O)N[C@H](CO)C(=O)N[C@@H]([C@H](C)CC(=O)O)C(=O)N[C@@H](CC(=O)c2ccccc2N)C(=O)O[C@@H]1C [Daptomycin, daptomycin]
S. aureus strains; [3]
  MIC: 0.5 µg/mL
S. aureus strains; [4]
  MIC: 0.5 µg/mL
S. aureus strains; [5]
  MIC: 0.5 µg/mL
S. aureus strains; [6]
  MIC: 0.5 µg/mL
S. aureus strains; [7]
  MIC: 0.25 µg/mL
S. aureus strains; [8]
  MIC: 0.5 µg/mL
S. aureus strains; [9]
  MIC: 1 µg/mL
S. aureus strains; [10]
  MIC: 0.5 µg/mL
S. aureus strains; [11]
  MIC: 0.5 µg/mL
S. aureus strains; [12]
  MIC: 0.5 µg/mL
S. aureus strains; [13]
  MIC: 0.5 µg/mL
S. aureus strains; [14]
  MIC: 0.5 µg/mL
S. aureus strains; [15]
  MIC: 0.5 µg/mL
S. aureus strains; [16]
  MIC: 1 µg/mL
S. aureus strains; [17]
  MIC: 0.5 µg/mL
S. aureus strains; [18]
  MIC: 0.5 µg/mL
S. aureus strains; [19]
  MIC: 1 µg/mL
S. aureus strains; [20]
  MIC: 0.5 µg/mL
S. aureus strains; [21]
  MIC: 4 µg/mL
S. aureus strains; [22]
  MIC: 2 µg/mL
S. aureus strains; [23]
  MIC: 0.5 µg/mL
S. aureus strains; [24]
  MIC: 0.25 µg/mL
S. aureus strains; [25]
  MIC: 0.5 µg/mL
S. aureus strains; [26]
  MIC: 0.5 µg/mL
S. aureus strains; [27]
  MIC: 0.25 µg/mL
S. aureus strains; [28]
  MIC: 0.25 to 4 µg/mL

## CN[C@@H]1[C@@H](O)[C@@H](O[C@@H]2[C@@H](O)[C@H](O[C@H]3OC(CNCCO)=CC[C@H]3N)[C@@H](N)C[C@H]2NC(=O)[C@@H](O)CCN)OC[C@]1(C)O [Example 1, 6′-(2-Hydroxy-ethyl)-1-(4-amino-2(S)-hydroxy-butyryl)-sisomicin]
P. aeruginosa strains [1]
  Example 1 concentration yielding synergy: ¼
P. aeruginosa strains [2]; 3 strains: 2 ant(2″)-Ia, 1 aac(6′)-Ib
  MICs for strains with genes encoding AMEs: equivalent to strains lacking AMEs
P. aeruginosa strains [2]; Strain 1
  MIC: 64 µg/mL
P. aeruginosa strains [2]; Strain 2
  MIC: 16 µg/mL
P. aeruginosa strains [2]; Strain 3
  MIC: 16 µg/mL
P. aeruginosa strains [2]; Strain 4
  MIC: 16 µg/mL
P. aeruginosa strains [2]; Strain 5
  MIC: 32 µg/mL
P. aeruginosa strains [2]; Strain 6
  MIC: 8 µg/mL
P. aeruginosa strains [2]; Strain 7
  MIC: 16 µg/mL
P. aeruginosa strains [2]; Strain 8
  MIC: 16 µg/mL
P. aeruginosa strains [2]; Strain 9
  MIC: 16 µg/mL
P. aeruginosa strains [2]; Strain 10
  MIC: 32 µg/mL
P. aeruginosa strains [2]; range over 10 P. aeruginosa strains
  MICs of each agent alone: 8 to 64 µg/mL
S. aureus strains; Strain 1, VRSA
  MIC: 1.0 µg/mL
S. aureus strains; Strain 2, VRSA
  MIC: 0.5 µg/mL
S. aureus strains; Strain 3, VRSA
  MIC: 1.0 µg/mL
S. aureus strains; Strain 4, VRSA
  MIC: 2.0 µg/mL
S. aureus strains; Strain 5, VRSA
  MIC: 1.0 µg/mL
S. aureus strains; Strain 6, CA-MRSA, PVL+
  MIC: 4.0 µg/mL
S. aureus strains; Strain 7, CA-MRSA, PVL+
  MIC: 2.0 µg/mL
S. aureus strains; Strain 8, CA-MRSA, PVL+
  MIC: 4.0 µg/mL
S. aureus strains; Strain 9, hVISA
  MIC: 1.0 µg/mL
S. aureus strains; Strain 10, hVISA
  MIC: 1.0 µg/mL
S. aureus strains; Strain 11, VISA
  MIC: 4.0 µg/mL
S. aureus strains; Strain 12, VISA
  MIC: 4.0 µg/mL
S. aureus strains; Strain 13, ATCC33591 HA-MRSA
  MIC: 8.0 µg/mL
S. aureus strains; Strain 14, HA-MRSA
  MIC: 2.0 µg/mL
S. aureus strains; Strain 15, HA-MRSA
  MIC: 2.0 µg/mL
S. aureus strains; Strain 16, HA-MRSA
  MIC: 2.0 µg/mL
S. aureus strains; Strain 17, HA-MRSA
  MIC: 4.0 µg/mL
S. aureus strains; Strain 18, HA-MRSA
  MIC: 2.0 µg/mL
S. aureus strains; Strain 19, HA-MRSA
  MIC: 2.0 µg/mL
S. aureus strains; Strain 20, HA-MRSA
  MIC: 2.0 µg/mL
S. aureus strains; Strain 21, HA-MRSA
  MIC: 4.0 µg/mL
S. aureus strains; Strain 22, HA-MRSA
  MIC: 4.0 µg/mL
S. aureus strains; Strain 23, CA-MRSA PVL+
  MIC: 4.0 µg/mL
S. aureus strains; Strain 24, CA-MRSA PVL+
  MIC: 4.0 µg/mL
S. aureus strains; Strain 25, CA-MRSA PVL neg
  MIC: 2.0 µg/mL
S. aureus strains; range over 25 S. aureus strains
  MICs of each agent alone: 0.5 to 8 µg/mL

## Nc1nc(/C(=N/O)C(=O)N[C@@H]2C(=O)N3C(C(=O)O)=C(/C=C4\CCN([C@@H]5CCNC5)C4=O)CS[C@H]23)ns1 [Ceftobiprole, ceftobiprole]
S. aureus strains; [3]
  MIC: 2 µg/mL
S. aureus strains; [4]
  MIC: 1 µg/mL
S. aureus strains; [5]
  MIC: 1 µg/mL
S. aureus strains; [6]
  MIC: 1 µg/mL
S. aureus strains; [7]
  MIC: 2 µg/mL
S. aureus strains; [8]
  MIC: 1 µg/mL
S. aureus strains; [9]
  MIC: 2 µg/mL
S. aureus strains; [10]
  MIC: 2 µg/mL
S. aureus strains; [11]
  MIC: 1 µg/mL
S. aureus strains; [12]
  MIC: 1 µg/mL
S. aureus strains; [13]
  MIC: 2 µg/mL
S. aureus strains; [14]
  MIC: 1 µg/mL
S. aureus strains; [15]
  MIC: 2 µg/mL
S. aureus strains; [16]
  MIC: 1 µg/mL
S. aureus strains; [17]
  MIC: 1 µg/mL
S. aureus strains; [18]
  MIC: 2 µg/mL
S. aureus strains; [19]
  MIC: 2 µg/mL
S. aureus strains; [20]
  MIC: 2 µg/mL
S. aureus strains; [21]
  MIC: 1 µg/mL
S. aureus strains; [22]
  MIC: 0.5 µg/mL
S. aureus strains; [23]
  MIC: 1 µg/mL
S. aureus strains; [24]
  MIC: 1 µg/mL
S. aureus strains; [25]
  MIC: 2 µg/mL
S. aureus strains; [26]
  MIC: 2 µg/mL
S. aureus strains; [27]
  MIC: 0.5 µg/mL
S. aureus strains; [28]
  MIC: 0.5 to 2 µg/mL
